Data set [1] relates to rat C6 glioma cells. As to the kind of experiment: GDNF production promoting action in rat C6 glioma cells (ELISA of culture supernatant). It counts as cell-based. The following applies: Rattus norvegicus, C6 glioma, 48 h; concentration which causes 50% increase of GDNF relative to the control group; cultured 2 days with test compound; GDNF in culture supernatant by ELISA. On the procedure: Using rat C6 glioma cells, the GDNF production promoting action of the compound of the present invention was evaluated.
Rat C6 glioma cells (ATCC) were grown in Dulbecco's Modified Eagle's Medium (DMEM) containing 10% FBS (Fetal Bovine Serum) in a collagen type 1 coated 75 cm^2 culture flask (SUMITOMO BAKELITE Co., Ltd.) until near confluent, detached by trypsin treatment and washed once with DMEM containing 10% FBS.
The cells after washing were diluted with 10% FBS-containing DMEM to a concentration of 5×10^4/mL and seeded at 0.3 mL/well in each well of collagen type 1 coated 48 well culture dish (SUMITOMO BAKELITE Co., Ltd.). After 3 days, the culture in the culture dish was placed in a 1% BSA (bovine serum albumin, Sigma)-containing DMEM medium supplemented with various concentrations of test compound, and further cultured for 2 days. The culture supernatant was recovered and preserved at −80° C. until measurement of GDNF.
The content of GDNF in the culture supernatant was measured by the following ELISA Method.
Anti-GDNF antibody (MAB212, R&D) was diluted with TBS (Tris buffered physiological saline: 25 mmol/L Tris-HCl (pH 8.0), 150 mmol/L NaCl) to 2 μg/mL and dispensed at 0.1 mL/well to each well of a 96-well immunoplate. The 96-well immunoplate was incubated overnight at 4° C. and washed once with TBS containing Tween 20 at 0.05% (hereinafter to be abbreviated as TBST). A blocking solution (TBS containing 1% BSA and 5% sucrose) was added at 0.2 mL/well to each well after washing, and the plate was incubated at room temperature for 1 hr., after which each well was washed twice with TBST. The culture supernatant (0.1 mL) of the aforementioned C6 cells was added to each well after washing and the plate was incubated at room temperature for 3 hrs., after which the wells were washed 5 times with TBST. The 500-fold diluted anti-GDNF antibody (G2791, Promega) was added by 0.1 mL to each well after washing, incubated at room temperature for 2 hrs. and washed 5 times with TBST. A 5000-fold diluted horseradish peroxidase-labeled anti-chicken IgY antibody (G1351, Promega) was added at 0.1 mL/well to each well after washing, incubated at room temperature for 2 hrs. and washed 5 times with TBST. A substrate solution (TMB substrate solution, BIO-RAD) was added at 0.1 mL/well to each well after washing and allowed to develop color at room temperature for 8 min. To stop the reaction, 0.1 mL of 1 mol/L phosphoric acid was added to each well in coloring developing reaction. The absorbance of the reaction solution at 450 nm wavelength was measured.
In the same manner as above except the test compound was not used, the ELISA Method was performed and this was used as a control group.
Using various concentrations of GDNF (Promega), ELISA Method was performed in the same manner as above and standard line was prepared.
From the aforementioned absorbance and standard line, GDNF content in a sample was calculated and the concentration (EC50), which causes 50% increase of GDNF relative to the control group was calculated from the regression line.

Data set [2] deals with PC12 cells. As to the kind of experiment: neuroprotective action (neurite network formation) in PC12 cells. The following applies: test compound 0.3-3.0 μmol/L, two days, DMEM with 0.5% FCS and 2 ng/mL NGF; observed under a microscope. Type of data set: cell-based. On the procedure:
Using PC12 cells, the neuroprotective action of the compound of the present invention was evaluated.
PC12 cells were precultured for one day in a DMEM (Dulbecco's Modified Eagle's Medium) culture solution containing 10% FCS (Fetal Calf Serum) in an incubator at 37° C., 5% CO2, and seeded at 5×10^3/well in a 24 well plate (Falcon) in the same medium. After the cells adhered to the bottom surface, the culture was changed to a DMEM culture solution containing 0.5% FCS and 2 ng/mL of NGF (Wako Pure Chemical Industries, Ltd.). After culturing overnight, the test compound was added at a concentration of 0.3-3.0 μmol/L and the cells were cultured for two more days. Gultalaldehyde was added to the cultured to a final concentration of 2% and the cells were fixed for 1 hr., after which stained with a Diff-Quick (International Reagents Corporation). The cells were washed, dried with air and observed under a microscope.

In the case of `CN1C(=O)SC(Cc2ccc(NC(=O)/C=C/c3cnn(C)c3-c3ccc(F)cc3)cc2)C1=O` (stereo not drawn) [Example 110, (2E)-3-[5-(4-Fluorophenyl)-1-methyl-1H-pyrazol-4-yl]-N-{4-[(3-methyl-2,4-dioxo-1,3-thiazolidin-5-yl)methyl]phenyl}acrylamide], the melting point lay within 228 to 229 °C. The EC50 in data set [1] was 310 nM. Further, the “formation of neurite network” value in data set [2] is given as “promoted formation of neurite network”.

For the compound `Cn1ncc(/C=C/C(=O)Nc2ccc(CS(C)(=O)=O)cc2)c1-c1ccc(F)cc1` [Example 222, (2E)-3-[5-(4-fluorophenyl)-1-methyl-1H-pyrazol-4-yl]-N-(4-[(methylsulfonyl)methyl]phenyl)acrylamide], the melting point is 251 to 252 °C. In data set [1], this compound returned an EC50 of 120 nM. For the same compound, the “formation of neurite network” value in data set [2] was “promoted formation of neurite network”.

`Cn1ncc(/C=C/C(=O)Nc2ccc(CN3CCOCC3)cc2)c1-c1ccc(F)cc1` [Example 192, (2E)-3-[5-(4-Fluorophenyl)-1-methyl-1H-pyrazol-4-yl]-N-[4-(4-morpholinylmethyl)phenyl]acrylamide] gave a melting point of 202 to 203 °C. Also, the EC50 in data set [1] was determined as 540 nM. In data set [2], the “formation of neurite network” value is given as “promoted formation of neurite network”.

The compound `Cn1ncc(/C=C/C(=O)Nc2ccc(Cn3cccn3)cc2)c1-c1ccc(F)cc1` [Example 161, (2E)-3-[5-(4-Fluorophenyl)-1-methyl-1H-pyrazol-4-yl]-N-[4-(1H-pyrazol-1-ylmethyl)phenyl]acrylamide] came in with a melting point of 189 to 191 °C. The compound further displayed an EC50 in data set [1] of 130 nM. Also, the “formation of neurite network” value in data set [2] is recorded as “promoted formation of neurite network”.

For `CCOP(=O)(Cc1ccc(NC(=O)/C=C/c2cnn(C)c2-c2cccs2)cc1)OCC` [Example 149, Diethyl [4-({(2E)-3-[1-methyl-5-(2-thienyl)-1H-pyrazol-4-yl]prop-2-enoyl}amino)benzyl]phosphonate], the melting point was 262 to 263 °C. Further, the EC50 in data set [1] came to 510 nM. Also, in data set [2], the “formation of neurite network” value is listed as “promoted formation of neurite network”.

For the compound `CCS(=O)(=O)Cc1ccc(NC(=O)/C=C/c2cnn(C)c2-c2ccc(F)cc2)cc1` [Example 223, (2E)-N-{4-[(Ethylsulfonyl)methyl]phenyl}-3-[5-(4-fluorophenyl)-1-methyl-1H-pyrazol-4-yl]acrylamide], the melting point lay in the range of 257 to 258 °C. In data set [1], this compound yielded an EC50 of 36 nM. Moreover, the “formation of neurite network” value in data set [2] is recorded as “promoted formation of neurite network”.

The compound `Cn1ncc(/C=C/C(=O)Nc2ccc(Cn3ccnc3)cc2)c1-c1ccc(F)cc1` [Example 159, (2E)-3-[5-(4-fluorophenyl)-1-methyl-1H-pyrazol-4-yl]-N-[4-(1H-imidazol-1-ylmethyl)phenyl]acrylamide] returned a melting point of 213 to 214 °C. This compound also yielded an EC50 in data set [1] of 120 nM. Also, the “formation of neurite network” value in data set [2] is on record as “promoted formation of neurite network”.

The values above are taken from patent US7423159B2, “Agent for preventing or treating neuropathy” (Takeda Pharmaceutical Company Limited, priority 2002, dated 2008).
